Assay results from patent publication US20150148411A1, “COMPOSITIONS AND METHODS FOR DIAGNOSIS AND THERAPY OF DISORDERS RELATED TO ALTERATIONS OF MYH9” (THE ROCKEFELLER UNIVERSITY, priority 2013, published 2015).
“Also recorded” adds a separate entry of the source. Where a SMILES comes first, the peptide text is derived from it. The star is where a group is joined. Cbz = O=C(OCc1ccccc1)*

Key:
p53 activation = test: p53/DNA damage response: p53 immunoblot of doxorubicin-treated primary keratinocytes; assay type: cell-based, mouse; conditions: for DDR-induced p53 activation (p53 immunoblot): doxorubicin-treated mouse keratinocytes, blebbistatin 4 μM, Y27632 10 μM, latrunculin 2 μM
Experimental: (§1) Western Blot analysis:-Protein blotting was carried out using standard protocols. Briefly, total cell lysates were prepared using RIPA (20 mM Tris-HCl (pH 8.0), 150 mM NaCl 1 mM EDTA, 1mM EGTA, 1% Triton X-100, 0.5% Deoxycorate, 0.1% SDS, 25 mM β-glycerophosphate, 10 mM NaF, 1 mM Na3VO4) supplemented with protease inhibitors (Complete mini, Roche). Blots were blocked with 5% BSA in 1×TBS 0.1% Tween-20 (TBST) for 1 h and incubated with the primary antibody overnight at 4° C. (diluted in TBST according to the manufacturer's protocol). Primary antibodies were reactive to rabbit anti-Myh9 (1:500, HPA001644, Sigma); phosphorylated (P) Erk1/2 (1:1000, #9101, Cell Signaling), Erk1/2 (1:1000, #9102, Cell Signaling), mouse anti-p53 (1:500, #2524, Cell Signaling), mouse anti-p21(F5) (1:500; sc-6246, Santa Cruz), mouse anti-GAPDH (ab8245, 1:5000; Abcam), mouse anti-Chk2 (1:500, #611570, BD); rabbit anti-P-Chk1 (1:500, #12302P, Cell Signaling); mouse anti-Chk1 (1:1000, 2360S, Cell Signaling); rabbit anti-pSmad2 (Ser465/467) (1:1000, Cell Signaling) and mouse anti-Smad2/3 (610843, 1/500; BD). Blots were washed three times in TBST for 30 min, incubated with HRP-conjugated secondary antibodies (1:2,000; Promega) for lh at room temperature, washed 3 times in TBST for 30 min and visualized using enhanced chemiluminescence (ECL).
(§2) p53/DNA damage responses:_For measurement of DNA damage response and p53 activation primary mouse keratinocytes cells were seeded at a cell density of 100,000 cells per well in a 6-well plate and allowed to grow for 24 h at 3% O2 till importantly 100% confluency. Cells were then treated with doxorubicin ([…]) as previously reported. For experiments using blebbistatin, cells were pretreated with blebbistatin (4 μM final concentration, Sigma B0560) 30 min prior to doxorubicin treatment. The Rock inhibitor Y27632 was used at 10 μM (Sigma Y0503), LatrunculinA was used at 2 μM (Sigma L5163), LeptomycinB was used at 20 nM (Sigma #9676) and the proteasome inhibitor MG132 was used at 3 μM (Sigma M7449).

H2AX, Chk1 and Chk2 = test: DDR activation markers by Western blot (γH2AX, phosphorylated Chk1, Chk2); assay type: cell-based, mouse; conditions: keratinocytes treated with inhibitor
Experimental: as §1, §2

nuclear p53 accumulation = test: Nuclear p53 retention in DDR-induced Myh9-knockdown primary keratinocytes (nuclear/cytoplasmic fractions); assay type: cell-based, mouse; conditions: LeptomycinB 20 nM; for nuclear p53 accumulation/retention after DNA damage: DDR-induced Myh9-knockdown (myosin-IIa-deficient) keratinocytes, blebbistatin 4 μM
Experimental: as §1, §2

HNSCC tumor suppressors = test: Pooled in vivo shRNA screen with deep sequencing of tumors; design: species or system mouse; conditions: deep sequencing of 87 lesions
Excerpt: Constructs and RNAi: shRNA constructs for the shRNA pool were obtained from The Broad Institute's Mission TRC-1 mouse library. We tested and used especially the following shRNAs targeting Brcal and Myh9:
Tumor free survival: Control and TβRII-cKO animals were transduced at E9.5 with low-titer shRNA pool targeting orthologs of putative HNSCC genes, including Brcal or Myh9. Scrambled shRNA was used as control. Transductions and knockdowns were confirmed by real-time PCR of mRNAs isolated from newborn skin epidermis or by fluorescence microscopy of a lentiviral reporter fluor, H2B-RFP or H2B-GFP. Animals were assessed biweekly for signs of tumorigenesis, and were considered positive if lesions grew to be larger than 2 mm in diameter.
Deep Sequencing: Sample preparation, preamplification and sequence processing Epidermal and tumor cells were subjected to genomic DNA isolation with the DNeasy Blood & Tissue Kit (Qiagen), and each sample was analyzed for target transduction using real-time PCR. […] Illumina reads were trimmed to the 21 nt hairpin sequence using the FASTX-Toolkit and aligned to the TRC 2.x library with BWA (v 0.6.2)44 using a maximum edit distance of 3. Hits were ranked based on (a) numbers of shRNAs that targeted the gene and scored positively in the screen, with 2 out of 5 shRNAs being considered meaningful; and (b) numbers of tumors enriched for a specific shRNA.

myosin-IIa = test: Myosin-IIa protein by immunoblot/immunohistochemistry in transduced mice; assay type: in vivo, mouse
Experimental: Immunohistochemistry and histological analyses of mouse and human Tumors: Immunohistochemistry was performed as previously described. Briefly, 5-μm sections were cut, stained with H&E or processed for immunohistochemistry/immunofluorescence microscopy. Whole-mount staining of mammary glands was performed as described. For immunoperoxidase staining, paraffin-embedded sections were dehydrated and antigenic epitopes exposed using a 10-mM citrate buffer (pH 6.0) in a pressure cooker. Sections were incubated with the following primary antibodies at 4° C. overnight: rabbit anti-K14 (1:500; E. Fuchs) and rabbit anti-Myh9 (HPA001644, 1:500 Sigma). Primary antibody staining was visualized using peroxidase-conjugated anti-rabbit IgG followed by the DAB substrate kit for peroxidase visualization of secondary antibodies (Vector Laboratories). The following human tissue microarray comprising 48 healthy human skin samples, 30 hyperplastic skin lesions and 206 human skin SCCs as well as from 156 HNSCCs were obtained from US Biomax, Rockeville, Md.: SK244a, SK241, SK242, SK801, SK802, SK2081, SK801b and HN803a, HN811a, HN483.
Western Blot analysis:-Protein blotting was carried out using standard protocols. […]

keratinocytes = test: Scratch wound assay on keratinocytes infected in vitro; assay type: cell-based, mouse; conditions: versus scrambled control
[1] = system: hair follicle down-growth; test: Hair follicle and eyelid phenotype of newborn mice transduced at E9.5; assay type: in vivo, mouse
Experimental: Materials and Methods. Mice and lentiviral transductions: TβRII foxed mice were crossed to K14-Cre and/or Rosa26YFPlox/stop/lox mice and or K14-CreER mice. Myh9 floxed mice were purchased form EMMA (EM:02572). CD1 mice were from Charles River laboratories. Large-scale production and concentration of lentivirus (6−10^9 cfu/ml) as well as ultrasound-guided lentiviral injection were performed as previously described. As controls for knock-down mice, littermates were infected with a non-targeting scrambled-shRNA, which activates the endogenous microRNA processing pathway but is not known to target any gene. Myh9fl/fl K14CreER mice were injected i.p. with 2 mg tamoxifen (20 mg/ml stock solution in corn oil) for 5 consecutive days at 6-8 weeks of age. DMBA/TPA treatment was performed as previously described. Briefly, 7-8 week old CD1 mice in second telogen were shaved and treated with 400 nmol DMBA in 100 ul aceton one week later. Thereafter, mice were treated with […] TPA in 100 ul aceton wice weekly for 20 weeks. All animals were maintained in an AAALAC-approved animal facility and procedures were performed with protocols approved by IACUC and in accordance with the National Institutes of Health.
Immunohistochemistry and histological analyses of mouse and human Tumors: Immunohistochemistry was performed as previously described. […]

nuclear p53 = test: Nuclear p53 immunofluorescence in skin 6 hours after γ-irradiation (5Gy); assay type: in vivo, mouse; conditions: H2B-RFP labeled infected cells
Excerpt: Immunofluorescence staining The following primary antibodies were used for immunofluorescence: chicken anti-GFP (1:2000; Abcam); guinea-pig anti-K5 (1:500; E. Fuchs); rat anti-K14 (1:500; E. Fuchs); rabbit anti-K6 (1:500; E. Fuchs); rabbit anti-K18 (1:500; E. Fuchs); rat anti-CD104 β4-integrin (346-11A, 1:300; BD); rabbit anti loricin (1:500; E. Fuchs); rabbit anti-Caspase 3 (AF835, 1:1000; R&D), rabbit anti-K10 (PRB-159P, 1:1000; Covance); rabbit anti-Myh9 (HPA001644, 1:500 Sigma); rabbit anti-SMA (ab5694 1:300; Abcam) and rabit anti-p53 (NCL-p53-CMSp, 1:300; Leica). Secondary antibodies were conjugated to Alexa-488, 546, or 647 (1:1000, Life Technologies). Cells and tissues were processed as previously reported, and mounted in Vectashield HardSet mounting medium with DAPI (Life Technologies). […] For quantifications of nuclear p53, images were captured using an inverted Zeiss LSM 780 laser scanning microscope, powered by Zen software. Quantitative image analysis was performed using ImageJ software. To quantify p53 nuclear staining, the following formula was used: CTCF (corrected total cell fluorescence)=whole nucleus signal−(mean background signal (measured in the suprabasal layer)×area of the nucleus measured).

Molecule: CC(C)C[C@@H](C=O)NC(=O)[C@H](CC(C)C)NC(=O)[C@H](CC(C)C)NC(=O)OCc1ccccc1 [MG132] (Cbz-Leu-Leu-Leu-aldehyde)
- p53 protein levels in presence of proteasome inhibitor (p53 activation; Myh9-knockdown and control keratinocytes, DNA damage, MG132 3 μM): rescues Myh9 phenotype; also recorded: comparably induced in both Myh9-knockdown and control keratinocytes

Molecule: C[C@@H](N)[C@H]1CC[C@H](C(=O)Nc2ccncc2)CC1 [Y27632]
- DDR activation (γH2AX, phosphorylated Chk1 and Chk2) (H2AX, Chk1 and Chk2): normal DDR activation

Molecule: Cc1ccc2c(c1)C(=O)C1(O)CCN(c3ccccc3)C1=N2 (centres unmarked) [blebbistatin]
- DDR-induced p53 activation (p53 immunoblot) (p53 activation): phenocopied Myh9 loss of function effects on DDR-induced p53 activation
- nuclear p53 accumulation/retention after DNA damage (nuclear p53 accumulation): Nuclear p53 is not retained
- DDR activation (γH2AX, phosphorylated Chk1 and Chk2) (H2AX, Chk1 and Chk2): normal DDR activation

Molecule: COc1cccc2c1C(=O)c1c(O)c3c(c(O)c1C2=O)C[C@@](O)(C(=O)CO)C[C@@H]3O[C@H]1C[C@H](N)[C@H](O)[C@H](C)O1 [doxorubicin]
- p53 activation by DNA damage inducer (p53 activation; control primary keratinocytes): led to p53 activation

Molecule: CCC(=C/[C@H](C)C/C=C/C(C)=C/[C@@H](C)C(=O)[C@@H](C)[C@H](O)[C@@H](C)C/C(C)=C/C(=O)O)/C=C/[C@@H]1OC(=O)C=C[C@@H]1C [leptomycinB]
- nuclear p53 accumulation/retention after DNA damage (nuclear p53 accumulation): restored to normal levels
- nuclear p53 accumulation/retention after DNA damage (nuclear p53 accumulation; listed as Leptomycin B): rescues the ability of Myh9-deficient cells to retain p53 in the nucleus; also recorded: restores p53 accumulation after DNA damage
- transactivation of p53 target genes such as CDKN2 (p21) (nuclear p53 accumulation; DDR-induced myosin-IIa-deficient keratinocytes): restored to normal levels

Molecule: Brcal-shRNA#560: positive-control shRNA targeting Brca1, 5′-CCCATCATACTTTAATGTGTA-3′ (SEQ ID NO: 1)
- shRNA enrichment in lesions relative to initial pool and healthy skin (HNSCC tumor suppressors): highly enriched

Molecule: Myh9-shRNA #504: shRNA targeting Myh9, 5′-CGGTAAATTCATTCGTATCAA-3′ (SEQ ID NO: 3)
- myosin-IIa protein in skin/epidermis (myosin-IIa; mice transduced in utero, examined at birth): loss of myosin-IIa
- myosin-IIa immunolabeling in SCC tumor epithelium (myosin-IIa; tumors from TβRII-cKO mice): absent
- keratinocyte migration (wound closure) (keratinocytes): enhances keratinocyte migration
- hair follicle down-growth [1]: impaired hair follicle down-growth

Molecule: Myh9-shRNA #507: shRNA targeting Myh9, 5′-GCGATACTACTCAGGGCTTAT-3′ (SEQ ID NO: 6)
- nuclear p53 staining in skin (nuclear p53): do not show efficient nuclear p53 staining

Molecule: latrunculin
- DDR-induced p53 activation (p53 immunoblot) (p53 activation): did not display these effects
- DDR activation (γH2AX, phosphorylated Chk1 and Chk2) (H2AX, Chk1 and Chk2): normal DDR activation
